Patent publication US11773094B2, “Farnesoid X receptor agonists and uses thereof” (Metacrine, Inc., priority 2018, dated 2023)

The molecules below were run against T1, hFXR (Homo sapiens, UniProt Q96RI1) (assay: In Vitro FXR Assay (TK): TK-ECRE-luc reporter in transfected CV-1 cells). Settings: CV-1 cells transfected with hFXR, hRXR, pCMX-YFP, 18 hrs incubation, luminescence.
T1 construct: expressed in transfected cells; host or cells: CV-1 cells
T1 sequence (Q96RI1 1-486): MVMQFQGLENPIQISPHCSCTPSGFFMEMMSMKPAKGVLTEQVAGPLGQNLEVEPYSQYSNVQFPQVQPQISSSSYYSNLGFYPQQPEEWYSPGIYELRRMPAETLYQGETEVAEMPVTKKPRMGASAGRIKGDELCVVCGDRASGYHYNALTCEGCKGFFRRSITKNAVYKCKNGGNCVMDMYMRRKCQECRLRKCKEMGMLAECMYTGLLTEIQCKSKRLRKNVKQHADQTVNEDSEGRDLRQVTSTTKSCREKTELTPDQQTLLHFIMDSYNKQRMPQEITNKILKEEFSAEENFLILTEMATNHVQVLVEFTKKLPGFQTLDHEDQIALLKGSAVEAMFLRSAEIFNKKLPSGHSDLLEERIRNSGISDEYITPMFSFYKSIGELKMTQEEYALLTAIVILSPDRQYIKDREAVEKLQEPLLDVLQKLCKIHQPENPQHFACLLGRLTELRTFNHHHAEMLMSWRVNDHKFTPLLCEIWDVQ
T1 sequence (P19793 1-462 partner): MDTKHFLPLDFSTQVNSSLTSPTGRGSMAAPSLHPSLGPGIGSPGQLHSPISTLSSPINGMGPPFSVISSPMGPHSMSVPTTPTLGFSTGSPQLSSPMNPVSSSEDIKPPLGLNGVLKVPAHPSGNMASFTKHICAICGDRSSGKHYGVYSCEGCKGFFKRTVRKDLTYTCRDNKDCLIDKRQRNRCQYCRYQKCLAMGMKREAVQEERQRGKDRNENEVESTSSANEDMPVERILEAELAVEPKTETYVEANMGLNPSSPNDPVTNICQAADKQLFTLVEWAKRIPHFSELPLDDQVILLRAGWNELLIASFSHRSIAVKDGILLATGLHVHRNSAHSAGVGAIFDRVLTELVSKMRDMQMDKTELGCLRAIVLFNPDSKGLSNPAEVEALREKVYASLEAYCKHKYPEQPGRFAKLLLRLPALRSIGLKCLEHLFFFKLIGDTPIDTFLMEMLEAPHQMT
Format: cell-based
In short: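 First, CV-1 cells were grown overnight in stripped-serum DMEM, then transfected for 18 h with expression plasmids for human FXR and RXR plus a TK-ECRE luciferase reporter and YFP. Next, serially diluted compounds were applied for 18 h, and lysates were read by luminescence.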

Row | Compound | EC50 [µM]
1 | CCC(C)(C)n1cc(-c2ccnc(N(CC34CCC(c5ccc(OC)c(C)c5)(CC3)CC4)C(=O)[C@H]3CC[C@H](OC(=O)NCCCO)CC3)c2)cn1 [Compound 4.03, 4-(((4-(4-Methoxy-3-methylphenyl)bicyclo[2.2.2]octan-1-yl)methyl)(4-(1-(tert-pentyl)-1H-pyrazol-4-yl)pyridin-2-yl)carbamoyl) cyclohexyl trans-(3-hydroxypropyl)carbamate] | ≤ 0.01
2 | CCC(C)(CC)n1cc(-c2ccnc(N(CC34CCC(c5ccc(OC)c(C)c5)(CC3)CC4)C(=O)[C@H]3CC[C@H](OC(=O)N4CC(O)C4)CC3)c2)cn1 [Compound 4.04, 4-(((4-(4-Methoxy-3-methylphenyl)bicyclo[2.2.2]octan-1-yl)methyl)(4-(1-(3-methylpentan-3-yl)-1H-pyrazol-4-yl)pyridin-2-yl)carbamoyl)cyclohexyl trans-3-hydroxyazetidine-1-carboxylate] | ≤ 0.01
3 | CCC(C)(CC)n1cc(-c2ccnc(N(CC34CCC(c5ccc(OC)c(C)c5)(CC3)CC4)C(=O)[C@H]3CC[C@H](OC(=O)N4CC(C)(O)C4)CC3)c2)cn1 [Compound 4.05, 4-(((4-(4-Methoxy-3-methylphenyl)bicyclo[2.2.2]octan-1-yl)methyl)(4-(1-(3-methylpentan-3-yl)-1H-pyrazol-4-yl)pyridin-2-yl)carbamoyl)cyclohexyl trans-3-hydroxy-3-methylazetidine-1-carboxylate] | ≤ 0.01
4 | CCC(C)(CC)n1cc(-c2ccnc(N(CC34CCC(c5ccc(OC)c(C)c5)(CC3)CC4)C(=O)[C@H]3CC[C@H](OC(=O)N4CCC(O)CC4)CC3)c2)cn1 [Compound 4.06, 4-(((4-(4-Methoxy-3-methylphenyl)bicyclo[2.2.2]octan-1-yl)methyl)(4-(1-(3-methylpentan-3-yl)-1H-pyrazol-4-yl)pyridin-2-yl)carbamoyl)cyclohexyl trans-4-hydroxypiperidine-1-carboxylate] | ≤ 0.01
5 | CCC(CC)(CC)n1cc(-c2ccnc(N(CC34CCC(c5ccc(OC)c(C)c5)(CC3)CC4)C(=O)[C@H]3CC[C@H](OC(=O)N4CC(O)C4)CC3)c2)cn1 [Compound 4.08, 4-((4-(1-(3-Ethylpentan-3-yl)-1H-pyrazol-4-yl)pyridin-2-yl)((4-(4-methoxy-3-methylphenyl)bicyclo[2.2.2]octan-1-yl)methyl)carbamoyl) cyclohexyl trans-3-hydroxyazetidine-1-carboxylate] | 0.01 to 1
6 | COc1ccc(C23CCC(CN(c4cc(-c5ccn(C(C)(C)C)n5)ccn4)C(=O)[C@H]4CC[C@H](OC(=O)N5CC(O)C5)CC4)(CC2)CC3)cc1C [Compound 4.10, 4-((4-(1-(tert-Butyl)-1H-pyrazol-3-yl)pyridin-2-yl)((4-(4-methoxy-3-methylphenyl)bicyclo[2.2.2]octan-1-yl)methyl)carbamoyl) cyclohexyl trans-3-hydroxyazetidine-1-carboxylate] | 0.01 to 1

Continued, values first:

Row | EC50 [µM] | Compound
7 | ≤ 0.01 | CCC(C)(CC)n1cc(-c2ccnc(N(CC34CCC(c5ccc(OC)c(C)c5)(CC3)CC4)C(=O)[C@H]3CC[C@H](OC(=O)NCCCO)CC3)c2)cn1 [Compound 4.07, 4-(((4-(4-Methoxy-3-methylphenyl)bicyclo[2.2.2]octan-1-yl)methyl)(4-(1-(3-methylpentan-3-yl)-1H-pyrazol-4-yl)pyridin-2-yl)carbamoyl)cyclohexyl trans-(3-hydroxypropyl)carbamate]
8 | ≤ 0.01 | COc1ccc(C23CCC(CN(c4cc(-c5cnn(C(C)(C)C(F)(F)F)c5)ccn4)C(=O)[C@H]4CC[C@H](OC(=O)N5CC(O)C5)CC4)(CC2)CC3)cc1C [Compound 4.09, 4-(((4-(4-Methoxy-3-methylphenyl)bicyclo[2.2.2]octan-1-yl)methyl)(4-(1-(1,1,1-trifluoro-2-methylpropan-2-yl)-1H-pyrazol-4-yl)pyridin-2-yl)carbamoyl)cyclohexyl trans-3-hydroxyazetidine-1-carboxylate]
9 | 0.01 to 1 | COc1ccc(C23CCC(CN(c4cc(-n5cnc(C(C)(C)C)c5)ccn4)C(=O)[C@H]4CC[C@H](OC(=O)N5CC(O)C5)CC4)(CC2)CC3)cc1C [Compound 4.11, 4-((4-(4-(tert-Butyl)-1H-imidazol-1-yl)pyridin-2-yl)((4-(4-methoxy-3-methylphenyl)bicyclo[2.2.2]octan-1-yl)methyl)carbamoyl) cyclohexyl trans-3-hydroxyazetidine-1-carboxylate]
